This note sets out measurements from patent publication US8133849B2, “Herbicidal compounds” (Syngenta Limited, priority 2007, dated 2012).

Holding throughout (test): Example B2 herbicidal action, post-emergence, pots in glasshouse, damage score 0-10
Common to all, as to type: in vivo
Holding throughout (details): application post-emergence, rate 1000 g/ha, evaluated after 13 days

Experiment [1] concerns Setaria faberi. How it is done:
(§1) Seeds of a variety of test species were sown in standard soil in pots. After 8 days cultivation (post-emergence) under controlled conditions in a glasshouse (at 24/16° C., day/night; 14 hours light; 65% humidity), the plants were sprayed with an aqueous spray solution derived from the formulation of the technical active ingredient in acetone/water (50:50) solution containing 0.5% Tween 20 (polyoxyethelyene sorbitan monolaurate, CAS RN 9005-64-5). The test plants were then grown in a glasshouse under controlled conditions in a glasshouse (at 24/16° C., day/night; 14 hours light; 65% humidity) and watered twice daily. After 13 days, the test was evaluated (10=total damage to plant; 0=no damage to plant).

In experiment [2] the test system is Solanum nigrum. Here is the method:
as §1

Experiment [3] deals with Ipomea hederaceae. How it is done: as §1
The subject of experiment [4] is Amaranthus retroflexus. How it is done: as §1
In experiment [5] the test system is Echinochloa crus-galli. How it is done:
as §1

`O=S1(=O)C(c2c(F)ccc(Br)c2Cl)=C(O)c2nccnc2N1CC(F)F` [Compound D14]: the “SETFA damage score (10=total damage to plant; 0=no damage to plant)” value in experiment [1] was 5. Besides, the “SOLNI damage score (10=total damage to plant; 0=no damage to plant)” value in experiment [2] came to 9. Moreover, in experiment [3], the “IPOHE damage score (10=total damage to plant; 0=no damage to plant)” value is listed as 9. In experiment [4], the “AMARE damage score (10=total damage to plant; 0=no damage to plant)” value worked out at 9. Further, the “ECHCG damage score (10=total damage to plant; 0=no damage to plant)” value in experiment [5] worked out at 7.

For `O=S1(=O)C(c2c(Cl)ccc(Cl)c2Cl)=C(O)c2nccnc2N1CC(F)F` [Compound D17], the “SETFA damage score (10=total damage to plant; 0=no damage to plant)” value in experiment [1] is 9. Also, the “SOLNI damage score (10=total damage to plant; 0=no damage to plant)” value in experiment [2] was determined as 10. The “IPOHE damage score (10=total damage to plant; 0=no damage to plant)” value in experiment [3] was 10. In addition, the “AMARE damage score (10=total damage to plant; 0=no damage to plant)” value in experiment [4] turned out to be 10. Also, the “ECHCG damage score (10=total damage to plant; 0=no damage to plant)” value in experiment [5] came to 9.

Turning to `O=S1(=O)C(c2c(F)ccc(-c3cccc(Cl)c3)c2Cl)=C(O)c2nccnc2N1CC(F)F` [Compound D20], the “SETFA damage score (10=total damage to plant; 0=no damage to plant)” value in experiment [1] is 1. The “SOLNI damage score (10=total damage to plant; 0=no damage to plant)” value in experiment [2] worked out at 5. Further, the “IPOHE damage score (10=total damage to plant; 0=no damage to plant)” value in experiment [3] was determined as 6. Besides, in experiment [4], the “AMARE damage score (10=total damage to plant; 0=no damage to plant)” value is given as 3. For the same compound, the “ECHCG damage score (10=total damage to plant; 0=no damage to plant)” value in experiment [5] is on record as 1.

Turning to `CC(C)(C)C(=O)OC1=C(c2ccc(I)cc2Cl)S(=O)(=O)N(CC(F)F)c2nccnc21` [Compound C141], the “SETFA damage score (10=total damage to plant; 0=no damage to plant)” value in experiment [1] is listed as 0. Moreover, the “SOLNI damage score (10=total damage to plant; 0=no damage to plant)” value in experiment [2] was found to be 8. In addition, the “IPOHE damage score (10=total damage to plant; 0=no damage to plant)” value in experiment [3] is listed as 7. Besides, the “AMARE damage score (10=total damage to plant; 0=no damage to plant)” value in experiment [4] is recorded as 7. The “ECHCG damage score (10=total damage to plant; 0=no damage to plant)” value in experiment [5] is recorded as 2.

In the case of `CCN1c2nccnc2C(OC(=O)C(C)(C)C)=C(c2cc(C(F)(F)F)ccc2Cl)S1(=O)=O` [Compound C33], the “SETFA damage score (10=total damage to plant; 0=no damage to plant)” value in experiment [1] was 0. Also, the “SOLNI damage score (10=total damage to plant; 0=no damage to plant)” value in experiment [2] worked out at 6. Further, in experiment [3], the “IPOHE damage score (10=total damage to plant; 0=no damage to plant)” value is 5. Moreover, the “AMARE damage score (10=total damage to plant; 0=no damage to plant)” value in experiment [4] turned out to be 1. Further, in experiment [5], the “ECHCG damage score (10=total damage to plant; 0=no damage to plant)” value stood at 0.

`CC(C)C(=O)OC1=C(c2cc(C(F)(F)F)ccc2Cl)S(=O)(=O)N(CC(Cl)Cl)c2nccnc21` [Compound C115]: the “SETFA damage score (10=total damage to plant; 0=no damage to plant)” value in experiment [1] turned out to be 5. The “SOLNI damage score (10=total damage to plant; 0=no damage to plant)” value in experiment [2] is 9. The “IPOHE damage score (10=total damage to plant; 0=no damage to plant)” value in experiment [3] is recorded as 6. In experiment [4], the “AMARE damage score (10=total damage to plant; 0=no damage to plant)” value is given as 8. Further, the “ECHCG damage score (10=total damage to plant; 0=no damage to plant)” value in experiment [5] stood at 1.

`CC(C)C(=O)OC1=C(c2cc(Cl)ccc2C(F)(F)F)S(=O)(=O)N(CC(F)F)c2nccnc21` [Compound C113]: the “SETFA damage score (10=total damage to plant; 0=no damage to plant)” value in experiment [1] stood at 6. In addition, the “SOLNI damage score (10=total damage to plant; 0=no damage to plant)” value in experiment [2] came out at 10. Besides, the “IPOHE damage score (10=total damage to plant; 0=no damage to plant)” value in experiment [3] is 9. The “AMARE damage score (10=total damage to plant; 0=no damage to plant)” value in experiment [4] worked out at 8. Besides, in experiment [5], the “ECHCG damage score (10=total damage to plant; 0=no damage to plant)” value was 7.

On to `CCN1c2nccnc2C(O)=C(c2ccccc2[N+](=O)[O-])S1(=O)=O` [Compound D34], for which the “SETFA damage score (10=total damage to plant; 0=no damage to plant)” value in experiment [1] was found to be 1. For the same compound, the “SOLNI damage score (10=total damage to plant; 0=no damage to plant)” value in experiment [2] was 1. The “IPOHE damage score (10=total damage to plant; 0=no damage to plant)” value in experiment [3] came out at 2. Besides, the “AMARE damage score (10=total damage to plant; 0=no damage to plant)” value in experiment [4] worked out at 0. Besides, the “ECHCG damage score (10=total damage to plant; 0=no damage to plant)” value in experiment [5] is given as 0.

For `C#CCN1c2nccnc2C(OC(=O)C(C)(C)C)=C(c2c(Cl)ccc(Cl)c2C(F)(F)F)S1(=O)=O` [Compound C86], in experiment [1], the “SETFA damage score (10=total damage to plant; 0=no damage to plant)” value was found to be 2. Besides, the “SOLNI damage score (10=total damage to plant; 0=no damage to plant)” value in experiment [2] is reported as 6. The “IPOHE damage score (10=total damage to plant; 0=no damage to plant)” value in experiment [3] is 4. Besides, the “AMARE damage score (10=total damage to plant; 0=no damage to plant)” value in experiment [4] worked out at 5. In addition, the “ECHCG damage score (10=total damage to plant; 0=no damage to plant)” value in experiment [5] was 5.

As for `CCN1c2nccnc2C(O)=C(c2c(Cl)ccc(Cl)c2C(F)(F)F)S1(=O)=O` [Compound D26], in experiment [1], the “SETFA damage score (10=total damage to plant; 0=no damage to plant)” value was 4. Moreover, the “SOLNI damage score (10=total damage to plant; 0=no damage to plant)” value in experiment [2] is listed as 8. In addition, the “IPOHE damage score (10=total damage to plant; 0=no damage to plant)” value in experiment [3] worked out at 8. In addition, the “AMARE damage score (10=total damage to plant; 0=no damage to plant)” value in experiment [4] was 8. In experiment [5], the “ECHCG damage score (10=total damage to plant; 0=no damage to plant)” value is 7.

As to `CCSC(=O)OC1=C(c2c(F)ccc(Br)c2Cl)S(=O)(=O)N(CC(F)F)c2nccnc21` [Compound C107], the “SETFA damage score (10=total damage to plant; 0=no damage to plant)” value in experiment [1] is reported as 3. Also, in experiment [2], the “SOLNI damage score (10=total damage to plant; 0=no damage to plant)” value is on record as 7. For the same compound, in experiment [3], the “IPOHE damage score (10=total damage to plant; 0=no damage to plant)” value worked out at 6. In addition, the “AMARE damage score (10=total damage to plant; 0=no damage to plant)” value in experiment [4] stood at 5. The “ECHCG damage score (10=total damage to plant; 0=no damage to plant)” value in experiment [5] amounted to 5.
